Data on three compounds can be found in US8372799B2, “Reverse protein” (Apeptico Forschung und Entwicklung GmbH, priority 2007, dated 2013).

Where a SMILES comes first, the peptide text is derived from it. Bridges are numbered along the chain shown (N, C = ends).

The series deals with Interleukin-6 (IL-6). The series is described as follows: Determination of inflammatory parameters: Interleukin-6 release in human fresh blood (ELISA). Type of series: cell-based. Particulars: for Concentration of Interleukin-6 (average of three measurements): human fresh blood, 24 hours at 37° C.; for inflammatory proteins such as the inflammation marker Interleukin-6 (IL-6): human immune cells from the blood, protein at a small concentration. The procedure:
For the examination, human immune cells from the blood are mixed with protein according to the present invention at a small concentration and are incubated in a manner common in laboratories. Subsequently, marker proteins for inflammations are determined by conventional methods.
Fresh human blood has a very sensitive reaction to pro-inflammatory molecules, among other things, with a release of the inflammation marker Interleukin-6 (IL-6). For determining the pro-inflammatory reaction, samples of human fresh blood with different concentrations of the protein comprising amino acid sequence SEQ ID NO:3 were incubated at the following concentrations: 10 μg/ml, 3 μg/ml, 1 μg/ml. After an incubation of 24 hours at 37° C., the inflammation marker Interleukin-6 was quantitatively determined in the solution via ELISA. LPS served as a positive control.

Regarding `C[C@@H]1NC(=O)CNC(=O)[C@H](CCC(=O)O)NC(=O)[C@@H]2CCCN2C(=O)[C@H]([C@@H](C)O)NC(=O)[C@H](CCC(=O)O)NC(=O)[C@H](CCCNC(=N)N)NC(=O)[C@H](CCC(N)=O)NC(=O)[C@@H](N)CSSC[C@@H](C(=O)O)NC(=O)CNC(=O)CNC(=O)[C@H](CCCCN)NC(=O)[C@H](C)NC(=O)[C@H](CCC(=O)O)NC1=O` [SEQ ID NO:3, (NH2)Cys-Gln-Arg-Glu-Thr-Pro-Glu-Gly-Ala-Glu-Ala-Lys-Gly-Gly-Cys(COOH)] (H-CQRETPEGAEAKGGC-OH; disulfide 1-15), the “inflammatory proteins such as the inflammation marker Interleukin-6 (IL-6)” value (from here on “inflammatory proteins such”) is reported as “cannot be detected”. Also, the “Concentration of Interleukin-6 (average of three measurements)” value (from here on “Concentration”) (1 μg/ml) is “less than 0.5 pg/ml”. The “Concentration” value (10 μg/ml) was “less than 0.5 pg/ml”. Moreover, the “Concentration” value (1 nμg/ml) is listed as “less than 0.5 pg/ml”. Further, the “Concentration” value (3 nμg/ml) is “less than 0.5 pg/ml”.
With `CC[C@H](C)[C@H](NC(=O)[C@H](C)N)C(=O)N[C@@H](CCCCN)C(=O)N[C@@H](CO)C(=O)N1CCC[C@H]1C(=O)N[C@H]1CSSC[C@@H](C(=O)N2CCC[C@H]2C(=O)N[C@@H](CO)C(=O)N[C@H](C(=O)N[C@@H](Cc2c[nH]cn2)C(=O)N[C@H](C(=O)O)C(C)C)[C@@H](C)O)NC(=O)CNC(=O)CNC(=O)[C@H](CCCCN)NC(=O)[C@H](C)NC(=O)[C@H](CCC(=O)O)NC(=O)[C@H](C)NC(=O)CNC(=O)[C@H](CCC(=O)O)NC(=O)[C@@H]2CCCN2C(=O)[C@H]([C@@H](C)O)NC(=O)[C@H](CCC(=O)O)NC(=O)[C@H](CCCNC(=N)N)NC(=O)[C@H](CCC(N)=O)NC1=O` [SEQ ID NO:1] (H-AIKSPCQRETPEGAEAKGGCPSTHV-OH; disulfide 6-20), the “inflammatory proteins such” value was “cannot be detected”.
On to `C[C@@H]1NC(=O)CNC(=O)[C@H](CCC(=O)O)NC(=O)[C@@H]2CCCN2C(=O)[C@H]([C@@H](C)O)NC(=O)[C@H](CCC(=O)O)NC(=O)[C@H](CCCNC(=N)N)NC(=O)[C@H](CCC(N)=O)NC(=O)[C@@H](NC(=O)[C@@H]2CCCN2C(=O)[C@H](CO)NC(=O)[C@@H](N)CCCCN)CSSC[C@@H](C(=O)N2CCC[C@H]2C(=O)N[C@@H](CO)C(=O)O)NC(=O)CNC(=O)CNC(=O)[C@H](CCCCN)NC(=O)[C@H](C)NC(=O)[C@H](CCC(=O)O)NC1=O` [SEQ ID NO:2] (H-KSPCQRETPEGAEAKGGCPS-OH; disulfide 4-18), for which the “inflammatory proteins such” value was “cannot be detected”.
